Reference: patent US11974574B2, “Compositions and related methods for modulating endosymbionts” (Flagship Pioneering Innovations V, Inc., priority 2017, dated 2024)

Key:
BCR-4 [1] = assay: BCR-4 PNA leaf perfusion, BCR-4 expression by RT-qPCR; format: in vivo, Acyrthosiphon pisum; conditions: living aphids after 7 days of treatment, relative to actin
Description: After 7 days of treatment, RNA was extracted from the remaining aphids in each treatment group. Briefly, the aphid body surface was sterilized by dipping the aphid into a 6% bleach solution for approximately 5 seconds. Aphids were then rinsed in sterile water and total RNA was extracted from each individual aphid using the RNA extraction kit (Qiagen miRNeasy kit) according to manufacturer's instructions. RNA concentrations were measured using a nanodrop nucleic acid quantification. BCR-4 relative expression was measured by RT-qPCR. The primers used were ApBCR-4F ([…]; SEQ ID NO: 107) and ApBCR-4R ([…]; SEQ ID NO: 108). The internal reference gene primers were for Actin (housekeeping gene). The forward sequence was […]; SEQ ID NO: 109 and the reverse sequence was […]; SEQ ID NO: 110. […] RT-qPCR data was analyzed using analytic (Thermo Fisher Scientific, QuantStudio Design and Analysis) software.
At 7 post-treatment, RNA was extracted from live aphids and RT-pPCR was done as described above (see Microinjection Delivery Experimental Design) to quantify expression of BCR-4. […]

Buchnera = assay: BCR-4 PNA leaf perfusion, Buchnera/aphid copies by qPCR; format: in vivo; conditions: dead aphids collected 5 and 6 days post-treatment, water approximately 20
Description: After 5 and 6 days of treatment, DNA was extracted from dead aphids from each treatment group. Briefly, the aphid body surface was sterilized by dipping the aphid into a 6% bleach solution for approximately 5 seconds. Aphids were then rinsed in sterile water and DNA was extracted from each individual aphid using a DNA extraction kit (Qiagen, DNeasy kit) according to manufacturer's instructions. DNA concentration was measured using a nanodrop nucleic acid quantification, and Buchnera and aphid DNA copy numbers were measured by qPCR. The primers used for Buchnera were Buch_groES_18F ([…]; SEQ ID NO: 101) and Buch_groES_98R ([…]; SEQ ID NO: 102) (Chong and Moran, 2016 PNAS). The primers used for aphid were ApEF1a 107F ([…]; SEQ ID NO: 103) and ApEF1a 246R ([…]; SEQ ID NO: 104) (Chong and Moran, 2016 PNAS). qPCR was performed using a qPCR amplification ramp of 1.6 degrees C./s and the following conditions: 1) 95° C. for 10 minutes, 2) 95° C. for 15 seconds, 3) 55° C. for 30 seconds, 4) repeat steps 2-3 40×, 5) 95° C. for 15 seconds, 6) 55° C. for 1 minute, 7) ramp change to 0.15 degrees C./s, 8) 95° C. for 1 second. qPCR data was analyzed using analytic (Thermo Fisher Scientific, QuantStudio Design and Analysis) software. […]

BCR-4 [2] = assay: BCR-4 PNA microinjection, BCR-4 expression by RT-qPCR (Example 18); format: in vivo, A. pisum; conditions: microinjection 20 nl of 321 ng/μl; 4th and 5th instar; after 7 days; relative to Actin
Description: (§1) Microinjection was performed using NanoJet III Auto-Nanoliter Injector with an in-house pulled borosilicate needle (Drummond Scientific; Cat #3-000-203-G/XL). Aphids were transferred using a paint brush to a tubing system connected to vacuum which held them in place during the injection. The injection site was at the ventral thorax of the aphid. The injection solutions were water (negative control) or 321 ng/μl of BCR-4 PNA in water. The injection volume was 20 nl for adult (4th and 5th instar) aphids at a rate of 2 nl/sec. Each treatment group had approximately the same number of individuals injected from each of the collection plants. After injection, aphids were released into a petri dish onto fava bean leaves that had stems in an Eppendorf tube filled with 1 ml water. Survival and fecundity were monitored over the course of the experiment.
(§2) Aphids LSR-1 (which harbor only Buchnera), A. pisum were grown on fava bean plants (Vroma Vicia faba from Johnny's Selected Seeds) in a climate-controlled incubator (16 h light/8 h dark photoperiod; 60±5% RH; 25±2° C.). […]
After 7 days of treatment, RNA was extracted from the remaining aphids in each treatment group. […] RNA concentrations were measured using a nanodrop nucleic acid quantification. BCR-4 relative expression was measured by RT-qPCR. […] RT-qPCR data was analyzed using analytic (Thermo Fisher Scientific, QuantStudio Design and Analysis) software. […]

Aphids LSR-1, A. pisum = assay: BCR-4 PNA microinjection, aphid survival and fecundity; format: in vivo
Description: as §1, §2
The number of offspring produced from aphids in each treatment group was also assessed during the experiment and fecundity was represented as the number of offspring produced per adult at each time point assessed. […]

[3] = system: Aphids (LSR-1 strain, Acyrthosiphon pisum); assay: BCR-4 PNA leaf perfusion, aphid development and survival; format: in vivo; conditions: leaf perfusion with 1 uM solution
Description: Aphids (LSR-1 strain, Acyrthosiphon pisum) were grown on fava bean plants (Vroma Vicia faba from Johnny's Selected Seeds) in a climate-controlled incubator (16 h light/8 h dark photoperiod; 60±5% RH; 25±2° C.). Prior to being used for aphid rearing, fava bean plants were grown in potting soil at 24° C. with 16 h of light and 8 h of darkness. To limit maternal effects or health differences between plants, 5-10 adults from different plants were distributed among 10 two-week-old plants and allowed to multiply to high density for 5-7 days. For experiments, first and second instar aphids were collected from healthy plants and divided into two different treatment groups: 1) those allowed to feed on leaves perfused with water, and, 2) those allowed to feed on leaves perfused with a BCR-4 PNA solution in water.
For each leaf perfusion, approximately 1 ml of water (negative control) or a 1 uM BCR-4 PNA solution was injected into a fava bean leaf. […] Aphids were monitored daily for survival and dead aphids were removed when they were discovered. In addition, the developmental stage (1st, 2nd, 3rd, 4th, and 5th instar) was determined daily throughout the experiment.
LSR-1 first and second instar aphids were divided into two groups as defined in Leaf Perfusion Experimental Design. Aphids were monitored daily and the number of aphids at each developmental stage was determined. […]

YGRKKRRQRRR-CGTACAATAATCTCATGG [BCR-4 PNA]
median transcript levels of BCR-4, fold lower than water (BCR-4 [1]): approximately 3 fold
mean ratio Buchnera/aphid copies (Buchnera): approximately 57 Buchnera/aphid copies
BCR-4 expression, fold higher in water-injected aphids than in treated aphids (BCR-4 [2]): approximately 2 fold
survival versus water-injected aphids (Aphids LSR-1, A. pisum; microinjection 20 nl of 321 ng/μl, 4th and 5th instar): slight decrease in survival
fecundity, average offspring produced per adult (Aphids LSR-1, A. pisum; microinjection, at 3 and 7 days post-treatment, water 5 offspring/adult): 4 offspring/adult
aphids alive ([3]; day 7, water 53%): 30%
aphids in the 3rd instar stage ([3]; first and second instar LSR-1, day 2 post-treatment, water approximately 19%): 8%
